Data taken from the METLIN SMRT retention time set (Domingo-Almenara et al. 2019).

Test: gradient 5% acetonitrile 3 min, to 50% in 2 min, to 85% in 15 min, held 3 min, 100 µL/min
Settings: column: Zorbax Extend-C18 2.1 x 50 mm; eluents: water / acetonitrile, 0.1% formic acid
Procedure, shortened: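 The system's dead and dwell volumes were 40 μL and 900 μL, with a Zorbax Extend-C18 column (2.1 × 50 mm, 1.8 μm) run at 100 μL/min in water and acetonitrile containing 0.1% formic acid each. Pure standards were analyzed in mixtures of ~100 molecules by HPLC–quadrupole time-of-flight mass spectrometry in positive and negative ionization mode. Retention time was assigned from computationally picked, manually inspected adduct peaks.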

Structure (SMILES) | RP-LC retention time [s]
O=C(NC1CC1)C1CCN(S(=O)(=O)Cc2ccc(Cl)cc2)CC1 | 735
CCC(C)NC(=O)N1CCN(Cc2nc3cc(C(=O)N(C)C)ccc3n2C)CC1 (centres undefined) | 586
Cc1cc(N2CCN(C)CC2)nc2ccc(NC(=S)N3CCCCCC3)cc12 | 556
COc1c(OP2(=S)OCC(C)(C)CO2)cnn(C2CCCCC2)c1=O | 1190
CCn1cc(-c2nc(CC(=O)NCc3ccco3)cs2)c2cccnc21 | 793
Cc1ccc(S(=O)(=O)N2CCN(S(=O)(=O)N3CCCCC3)CC2)cc1 | 922
Cc1ccc(CNC(=O)N(C)CCc2noc(COc3cccc(C)c3)n2)cc1 | 956
CCOC(=O)c1c(C)[nH]c(C(=O)N2CCC(CC(=O)N3CCN(C4CCCCC4)CC3)CC2)c1C | 624
N#Cc1cccc(-c2cn3c(n2)N(C(=O)C2CCCO2)CCC3)c1 (centres undefined) | 703
O=C(Cn1cccc1-c1nc(-c2ccccc2)no1)N1CCCc2ccccc21 | 1210
Cc1ncc2c(n1)CCN(C(=O)c1ccc(Cl)cc1)C2 | 627
CCC1CN2C=NC(N3CCN(C(=O)c4nn(CC)cc4Cl)CC3)=CC2=N1 (centres undefined) | 602
COc1ccc(C)cc1NC(=O)N1CCC2(CC1)NC(=O)c1ccccc1N2C | 807
CNC(=O)[C@@H]1CN(C(=O)Cc2ccsc2)C[C@H]1c1n[nH]c(C)n1 | 565
CCOc1ccccc1N1CCN(Cc2nc(-c3ccc(N4CCCC4)nc3)no2)CC1 | 651
c1ccc(-c2nnc3oc(-c4cccs4)nn23)cc1 | 911
CC1CN(S(=O)(=O)c2cccc(-c3cn4cc(Cl)ccc4n3)c2)CC(C)O1 (centres undefined) | 873
COC(=O)c1ccc(Cl)cc1NC(=O)N1CCCn2nc(-c3cccs3)cc2C1 | 1120
COc1ccc(S(=O)(=O)N2CCCC(c3nn[nH]n3)C2)cc1 (centres undefined) | 714
C=CCc1c(C)nc2c(-c3ccccc3)cnn2c1NCCN(C)C | 660
CCOc1ccccc1CNC(=O)c1cnc(OC)nc1 | 702
Cc1ccc(=O)n(CCNC(=O)c2cncc(Br)c2)n1 | 579
Cc1ccc(CNC(=O)C2(C)Cn3nc(C(=O)NCc4ccc(F)cc4)cc3C(=O)N2C)cc1 (centres undefined) | 783

Structure (SMILES) | RP-LC retention time [s]
COc1ccc(-c2n[nH]c3c2C(c2ccc(O)c(OC)c2)NC3=O)cc1 (centres undefined) | 639
Clc1ccc(C2Cn3nnc(-c4nc(-c5ccncc5)no4)c3CO2)cc1 (centres undefined) | 1000
CCc1cccc(NS(=O)(=O)c2cc3n(c2)CCN(CC)C3=O)c1 | 762
CCc1nc2cc(-c3noc(Cc4ccc(C)cc4)n3)ccc2o1 | 1160
Cc1cccc(S(=O)(=O)N2CCc3nc[nH]c3C2)c1 | 590
COC(=O)c1cc(C2CC2)nc2c1c(=O)n(Cc1ccc(C)cc1)c(=O)n2C | 1160
CC(C)NC(=O)N1CCCN(S(C)(=O)=O)CC1 | 598
c1ccc(-c2noc(N3CCN(c4ccccn4)CC3)n2)cc1 | 668
COc1ccccc1N1CCN(C(=O)c2cn(-c3ccc(NC(=O)C4CC4)cn3)cn2)CC1 | 699
CCCN1C(=O)COc2ccc(-c3noc(-c4cccc(OC)c4OC)n3)cc21 | 1160
Cc1nn(-c2cc(N3CCCCC3)ncn2)c(C)c1CCC(=O)NCc1ccco1 | 811
CC(C)(C)c1csc(-c2csc(S(=O)(=O)Nc3ccc(Cl)cc3F)c2)n1 | 1300
COc1cccc(CNC(=O)C2(C)CCCN(C(=O)Nc3ccc4c(c3)OCCO4)C2)c1 (centres undefined) | 802
CC1CCN(C(=O)CN2C(=O)C3CCCCN3c3ccc(S(=O)(=O)N(C)C)cc32)CC1 (centres undefined) | 910
O=C(COc1ccccc1)N1CCc2nc(-c3ccc(Cl)cc3)ncc2C1 | 848
Cc1ccc2ccc(C#N)cc2c1O | 892
COc1ccc(S(=O)(=O)N2CCN(CCc3cn(C)c4ncccc34)CC2)cc1Cl | 654
COc1cc(-c2nc3ncccn3c2Nc2cccc(C)c2)ccc1O | 647
O=C(CCc1nnc2ccc(N3CCCC3)nn12)N1CCN(c2ccccn2)CC1 | 585
CCOC(=O)C1=C(CN(CC)Cc2ccccc2)NC(=O)NC1c1cccs1 (centres undefined) | 674
Cn1cc(-c2ccncc2)cc1C(=O)NCc1ccccc1Cl | 646
Cc1ccc(Cl)cc1N1CCN(C(=O)C2CCN(S(=O)(=O)c3cn(C(C)C)cn3)CC2)CC1 | 964
CCOc1ccccc1NC(=O)N1CCC2(CC1)NC(=O)c1ccc(Cl)cc1N2 | 834

Structure (SMILES) | RP-LC retention time [s]
COc1ccc(C(CNC(=O)c2cc(=O)c3cc(C)cc(C)c3o2)N(C)C)cc1 (centres undefined) | 675
Cc1[nH]c2ccccc2c1C(=O)C(=O)NC1CCCCC1 | 798
Cc1ccc(-n2c(N3CCCC(C(=O)Nc4ccc(C)c(F)c4)C3)nc3ccsc3c2=O)cc1 (centres undefined) | 1070
Cc1nc(-c2csc(S(=O)(=O)N3CCC(C(=O)NCCc4ccc(Cl)cc4)CC3)c2)no1 | 938
O=C(Cn1c(=O)c2cc(-c3cccs3)nn2c2ncccc21)Nc1ccccc1F | 839
CN1C(=O)[C@H]2CN(Cc3ccccc3OC(F)(F)F)C[C@H]2C1=O | 691
Cc1cc2nn(CC(=O)N3CCCC3)c(=O)n2c(-c2ccc(C(F)(F)F)cc2)n1 | 774
CC(=O)N1CCc2cc(N3CC(C(=O)N(C)Cc4ccccc4)CC3=O)ccc21 (centres undefined) | 697
Cc1ccc(CSc2ccc(-n3nc4c(c3C)CCC4)nn2)cc1 | 1370
CCN1C(=O)COc2ccc(-c3nc(NC(=O)c4cccc(C)c4)sc3C)cc21 | 682
CC(C)CCNC(=O)Cn1c(=O)c(S(=O)(=O)c2ccccc2)cc2ccccc21 | 866
CCNc1nc(C)cc(N2CCN(C(=O)Nc3ccc(CC)cc3)CC2)n1 | 702
O=C(Cn1ccc2sccc2c1=O)Nc1cccc(F)c1 | 746
Cn1nc(C2CCN(C(=O)NCc3ccccc3)CC2)c2c1CCOC2 | 668
COc1ccc([N+](=O)[O-])cc1NC(=O)N(C)Cc1ccco1 | 922
CC1=C2C3OC(=O)C(C)C3CCC2(C)C=C(Cl)C1=O (centres undefined) | 914
O=C(Nc1ccccc1)N1CCCC1c1nc(-c2cccc(Cl)c2)no1 (centres undefined) | 1030
CCC(C)NC(=O)Cn1nc2c3sc(N(C)C)nc3ncn2c1=O (centres undefined) | 1130
Cc1cccc(NC(=O)CN2C(=O)CCS(=O)(=O)c3ccccc32)c1C | 760
COc1ccc(C(=O)N2CCc3nc(CNC(=O)C4CCC4)n(C)c3C2)cc1 | 516
Cc1nn(-c2ccc(C(=O)NC3CCCC3)cn2)c(C)c1C | 907
Cc1cccc(NC(=O)N2CCCC(Cn3c(C4CC4)nc4cccnc43)C2)c1C (centres undefined) | 683
COc1cccc(N2CCN(C(=O)c3cc4c(-c5cccs5)nn(-c5ccccc5)c4n3C)CC2)c1 | 1180

Structure (SMILES) | RP-LC retention time [s]
Cc1cc2nn(CC(=O)Nc3ccccc3)c(=O)n2c(-c2ccccc2)n1 | 769
CN1C[C@@H]2c3ccccc3Oc3ccc(Cl)cc3[C@H]2C1 | 758
CC(C)NC(=O)c1ccc(OCC2CCCN(C(=O)C3(c4ccccc4)CC3)C2)cc1 (centres undefined) | 940
Cc1ccn2cc(-c3ccc(NC(=O)c4ccccc4C(F)(F)F)cc3)nc2n1 | 664
Cc1cccc(NC(=O)C2CCCN(S(=O)(=O)c3c[nH]c(C(=O)N4CCCC4)c3)C2)c1C (centres undefined) | 802
CCCNC(=O)N1CCCN(C2=NS(=O)(=O)C(c3cccc(Cl)c3)=C2C)CC1 | 775
COCc1noc([C@@H]2CC(F)(F)CN2C(=O)c2coc(C)n2)n1 | 717
Cn1c2c(c(=O)n3ncc(C(=O)N4CCN(c5ccccn5)CC4)c13)CN(Cc1ccccc1)CC2 | 602
COc1ccc(C2Cn3cnc(C(=O)N4CCC(C(=O)NC5CC5)CC4)c3CO2)cc1 (centres undefined) | 648
COc1ccc(-n2nc3c(N4CCCC(C(=O)NCc5cccs5)C4)nnc(C)c3c2C)cc1 (centres undefined) | 724
O=C(Cc1c[nH]c2ccccc12)Nc1cc(-c2ccsc2)no1 | 876
O=C(N1CCC(c2nc(-c3ccccc3)no2)C1)C1(c2ccccc2)CC1 (centres undefined) | 994
Cc1ccccc1CC(=O)Nc1cc(-c2nnc(C3CC3)o2)sc1C | 724
CCN(CCNC(=O)C12CCCC=C1N(Cc1ccccc1)C(=O)CC2)Cc1ccccc1 (centres undefined) | 603
CCOC(=O)CNC(=O)NCc1cccn1Cc1ccc(F)cc1 | 772
O=C(Nc1cc(F)cc(F)c1)c1csc(-c2ccc(N3CCCC3)nc2)n1 | 853
Cc1cccc(-c2noc(Cc3nnc(-c4ccc(F)cc4)o3)n2)c1 | 1070
O=C(Cn1nc2c3sc(N4CCCCC4)nc3ncn2c1=O)Nc1ccc(Cl)cc1 | 832
O=C(CCc1nnc2ccc(NCc3ccccc3)nn12)N1CCN(c2ccccn2)CC1 | 588
CC(C)NC(=O)C1CCN(C(=O)c2cc(-c3ccncc3)n[nH]2)CC1 | 556
